Assays:
[1] = Ratio of drug uptake in caudate to cerebellum in anesthetized cynomolgus monkey after 18.5 mins postinjection; type: ADME, organism-based, Macaca fascicularis; conditions: in vivo
Thalamus [2] = assay: Drug uptake in anesthetized cynomolgus monkey brain thalamus after 185 mins postinjection; type: ADME, organism-based, Macaca fascicularis; conditions: in vivo
Putamen [3] = assay: Drug uptake in anesthetized cynomolgus monkey brain putamen after 225 mins postinjection; type: ADME, organism-based, Macaca fascicularis; conditions: in vivo, 3.75 h
Medulla [4] = assay: Drug uptake in anesthetized cynomolgus monkey brain medulla after 27.5 mins postinjection; type: ADME, organism-based, Macaca fascicularis; conditions: in vivo
[5] = Ratio of drug uptake in medulla to cerebellum in anesthetized cynomolgus monkey after 165 mins postinjection; type: ADME, organism-based, Macaca fascicularis; conditions: in vivo, 2.75 h
Thalamus [6] = assay: Drug uptake in anesthetized cynomolgus monkey brain thalamus after 115 mins postinjection; type: ADME, organism-based, Macaca fascicularis; set-up: unit not given here; conditions: in vivo
Caudate [7] = assay: Drug uptake in anesthetized cynomolgus monkey brain caudate after 65 mins postinjection; type: ADME, organism-based, Macaca fascicularis, Caudate nucleus; conditions: in vivo
Midbrain [8] = assay: Drug uptake in anesthetized cynomolgus monkey brain midbrain after 205 mins postinjection; type: ADME, organism-based, Macaca fascicularis; conditions: in vivo
Putamen [9] = assay: Drug uptake in anesthetized cynomolgus monkey brain putamen after 95 mins postinjection; type: ADME, organism-based, Macaca fascicularis; set-up: unit not given here; conditions: in vivo
Putamen [10] = assay: Drug uptake in anesthetized cynomolgus monkey brain putamen after 6.5 mins postinjection; type: ADME, organism-based, Macaca fascicularis; set-up: unit not given here; conditions: in vivo
Medulla [11] = assay: Drug uptake in anesthetized cynomolgus monkey brain medulla after 4.5 mins postinjection; type: ADME, organism-based, Macaca fascicularis; conditions: in vivo, 0.075 h
Pons [12] = assay: Drug uptake in anesthetized cynomolgus monkey brain pons after 225 mins postinjection; type: ADME, organism-based, Macaca fascicularis; conditions: in vivo, 3.75 h
Medulla [13] = assay: Drug uptake in anesthetized cynomolgus monkey brain medulla after 2.5 mins postinjection; type: ADME, organism-based, Macaca fascicularis; conditions: in vivo
Caudate [14] = assay: Drug uptake in anesthetized cynomolgus monkey brain caudate after 145 mins postinjection; type: ADME, organism-based, Macaca fascicularis, Caudate nucleus; conditions: in vivo
Thalamus [15] = assay: Drug uptake in anesthetized cynomolgus monkey brain thalamus after 12.5 mins postinjection; type: ADME, organism-based, Macaca fascicularis; set-up: unit not given here; conditions: in vivo
Caudate [16] = assay: Drug uptake in anesthetized cynomolgus monkey brain caudate after 215 mins postinjection; type: ADME, organism-based, Macaca fascicularis, Caudate nucleus; conditions: in vivo
Medulla [17] = assay: Drug uptake in anesthetized cynomolgus monkey brain medulla after 1.5 mins postinjection; type: ADME, organism-based, Macaca fascicularis; conditions: in vivo, 0.025 h
Caudate [18] = assay: Drug uptake in anesthetized cynomolgus monkey brain caudate after 85 mins postinjection; type: ADME, organism-based, Macaca fascicularis, Caudate nucleus; conditions: in vivo
[19] = Ratio of drug uptake in caudate to cerebellum in anesthetized cynomolgus monkey after 9.5 mins postinjection; type: ADME, organism-based, Macaca fascicularis; conditions: in vivo
Caudate [20] = assay: Drug uptake in anesthetized cynomolgus monkey brain caudate after 22.5 mins postinjection; type: ADME, organism-based, Macaca fascicularis, Caudate nucleus; conditions: in vivo, 0.375 h
Midbrain [21] = assay: Drug uptake in anesthetized cynomolgus monkey brain midbrain after 27.5 mins postinjection; type: ADME, organism-based, Macaca fascicularis; set-up: unit not given here; conditions: in vivo
Thalamus [22] = assay: Drug uptake in anesthetized cynomolgus monkey brain thalamus after 105 mins postinjection; type: ADME, organism-based, Macaca fascicularis; set-up: unit not given here; conditions: in vivo, 1.75 h
Pons [23] = assay: Drug uptake in anesthetized cynomolgus monkey brain pons after 105 mins postinjection; type: ADME, organism-based, Macaca fascicularis; conditions: in vivo, 1.75 h
Caudate [24] = assay: Drug uptake in anesthetized cynomolgus monkey brain caudate after 185 mins postinjection; type: ADME, organism-based, Macaca fascicularis, Caudate nucleus; conditions: in vivo
Medulla [25] = assay: Drug uptake in anesthetized cynomolgus monkey brain medulla after 0.5 mins postinjection; type: ADME, organism-based, Macaca fascicularis; conditions: in vivo
[26] = Ratio of drug uptake in thalamus to cerebellum in anesthetized cynomolgus monkey after 9.5 mins postinjection; type: ADME, organism-based, Macaca fascicularis; conditions: in vivo
[27] = Drug uptake in anesthetized cynomolgus monkey brain occipital lobe after 155 mins postinjection; type: ADME, organism-based, Macaca fascicularis; conditions: in vivo
[28] = Ratio of drug uptake in occipital lobe to cerebellum in anesthetized cynomolgus monkey after 135 mins postinjection; type: ADME, organism-based, Macaca fascicularis; conditions: in vivo, 2.25 h
Thalamus [29] = assay: Drug uptake in anesthetized cynomolgus monkey brain thalamus after 205 mins postinjection; type: ADME, organism-based, Macaca fascicularis; conditions: in vivo
Midbrain [30] = assay: Drug uptake in anesthetized cynomolgus monkey brain midbrain after 225 mins postinjection; type: ADME, organism-based, Macaca fascicularis; conditions: in vivo, 3.75 h
Midbrain [31] = assay: Drug uptake in anesthetized cynomolgus monkey brain midbrain after 1.5 mins postinjection; type: ADME, organism-based, Macaca fascicularis; set-up: unit not given here; conditions: in vivo, 0.025 h
[32] = Ratio of drug uptake in medulla to cerebellum in anesthetized cynomolgus monkey after 155 mins postinjection; type: ADME, organism-based, Macaca fascicularis; conditions: in vivo
[33] = Ratio of drug uptake in caudate to cerebellum in anesthetized cynomolgus monkey after 135 mins postinjection; type: ADME, organism-based, Macaca fascicularis; conditions: in vivo, 2.25 h
[34] = Drug uptake in anesthetized cynomolgus monkey brain frontal lobe after 65 mins postinjection; type: ADME, organism-based, Macaca fascicularis; conditions: in vivo
Medulla [35] = assay: Drug uptake in anesthetized cynomolgus monkey brain medulla after 3.5 mins postinjection; type: ADME, organism-based, Macaca fascicularis; conditions: in vivo
[36] = Ratio of drug uptake in pons to cerebellum in anesthetized cynomolgus monkey after 18.5 mins postinjection; type: ADME, organism-based, Macaca fascicularis; conditions: in vivo
Medulla [37] = assay: Drug uptake in anesthetized cynomolgus monkey brain medulla after 165 mins postinjection; type: ADME, organism-based, Macaca fascicularis; conditions: in vivo, 2.75 h
Putamen [38] = assay: Drug uptake in anesthetized cynomolgus monkey brain putamen after 27.5 mins postinjection; type: ADME, organism-based, Macaca fascicularis; set-up: unit not given here; conditions: in vivo
Midbrain [39] = assay: Drug uptake in anesthetized cynomolgus monkey brain midbrain after 155 mins postinjection; type: ADME, organism-based, Macaca fascicularis; conditions: in vivo
[40] = Ratio of drug uptake in medulla to cerebellum in anesthetized cynomolgus monkey after 35 mins postinjection; type: ADME, organism-based, Macaca fascicularis; conditions: in vivo
[41] = Drug uptake in anesthetized cynomolgus monkey brain occipital lobe after 195 mins postinjection; type: ADME, organism-based, Macaca fascicularis; conditions: in vivo, 3.25 h
Caudate [42] = assay: Drug uptake in anesthetized cynomolgus monkey brain caudate after 135 mins postinjection; type: ADME, organism-based, Macaca fascicularis, Caudate nucleus; conditions: in vivo, 2.25 h
Medulla [43] = assay: Drug uptake in anesthetized cynomolgus monkey brain medulla after 175 mins postinjection; type: ADME, organism-based, Macaca fascicularis; conditions: in vivo
Pons [44] = assay: Drug uptake in anesthetized cynomolgus monkey brain pons after 235 mins postinjection; type: ADME, organism-based, Macaca fascicularis; conditions: in vivo
[45] = Drug uptake in anesthetized cynomolgus monkey brain frontal lobe after 2.5 mins postinjection; type: ADME, organism-based, Macaca fascicularis; conditions: in vivo
[46] = Drug uptake in anesthetized cynomolgus monkey brain frontal lobe after 95 mins postinjection; type: ADME, organism-based, Macaca fascicularis; conditions: in vivo
Caudate [47] = assay: Drug uptake in anesthetized cynomolgus monkey brain caudate after 115 mins postinjection; type: ADME, organism-based, Macaca fascicularis, Caudate nucleus; conditions: in vivo
Caudate [48] = assay: Drug uptake in anesthetized cynomolgus monkey brain caudate after 105 mins postinjection; type: ADME, organism-based, Macaca fascicularis, Caudate nucleus; conditions: in vivo, 1.75 h
[49] = Ratio of drug uptake in medulla to cerebellum in anesthetized cynomolgus monkey after 185 mins postinjection; type: ADME, organism-based, Macaca fascicularis; conditions: in vivo
[50] = Ratio of drug uptake in midbrain to cerebellum in anesthetized cynomolgus monkey after 2.5 mins postinjection; type: ADME, organism-based, Macaca fascicularis; conditions: in vivo
Midbrain [51] = assay: Drug uptake in anesthetized cynomolgus monkey brain midbrain after 12.5 mins postinjection; type: ADME, organism-based, Macaca fascicularis; set-up: unit not given here; conditions: in vivo
Midbrain [52] = assay: Drug uptake in anesthetized cynomolgus monkey brain midbrain after 9.5 mins postinjection; type: ADME, organism-based, Macaca fascicularis; set-up: unit not given here; conditions: in vivo
Pons [53] = assay: Drug uptake in anesthetized cynomolgus monkey brain pons after 6.5 mins postinjection; type: ADME, organism-based, Macaca fascicularis; conditions: in vivo
[54] = Ratio of drug uptake in putamen to cerebellum in anesthetized cynomolgus monkey after 235 mins postinjection; type: ADME, organism-based, Macaca fascicularis; conditions: in vivo
[55] = Drug uptake in anesthetized cynomolgus monkey brain cerebellum after 205 mins postinjection; type: ADME, organism-based, Macaca fascicularis; conditions: in vivo

SMILES: O=C(OCC[18F])C1C2CCC(CC1c1ccc(/C=C\I)cc1)N2 (stereo not given)
- Ratio [1]: 0.7
- Drug uptake (Thalamus [2]): 3.8
- Drug uptake (Putamen [3]): 3.79
- Drug uptake (Medulla [4]): 3.35
- Ratio [5]: 2.6
- Drug uptake (Thalamus [6]): 4.06
- Drug uptake (Caudate [7]): 2.87
- Drug uptake (Midbrain [8]): 4.57
- Drug uptake (Putamen [9]): 4.36
- Drug uptake (Putamen [10]): 1.89
- Drug uptake (Medulla [11]): 1.36
- Drug uptake (Pons [12]): 3.34
- Drug uptake (Medulla [13]): 0.5
- Drug uptake (Caudate [14]): 3.05
- Drug uptake (Thalamus [15]): 2.29
- Drug uptake (Caudate [16]): 2.81
- Drug uptake (Medulla [17]): 0.14
- Drug uptake (Caudate [18]): 3.03
- Ratio [19]: 0.7
- Drug uptake (Caudate [20]): 2.05
- Drug uptake (Midbrain [21]): 3.19
- Drug uptake (Thalamus [22]): 4.11
- Drug uptake (Pons [23]): 3.4
- Drug uptake (Caudate [24]): 2.97
- Drug uptake (Medulla [25]): 0
- Ratio [26]: 1
- Drug uptake [27]: 2.02
- Ratio [28]: 1.3
- Drug uptake (Thalamus [29]): 3.59
- Drug uptake (Midbrain [30]): 4.51
- Drug uptake (Midbrain [31]): 0.1
- Ratio [32]: 2.5
- Ratio [33]: 1.8
- Drug uptake [34]: 2.03
- Drug uptake (Medulla [35]): 0.94
- Ratio [36]: 0.9
- Drug uptake (Medulla [37]): 3.58
- Drug uptake (Putamen [38]): 3.38
- Drug uptake (Midbrain [39]): 4.65
- Ratio [40]: 1.4
- Drug uptake [41]: 1.82
- Drug uptake (Caudate [42]): 3.1
- Drug uptake (Medulla [43]): 3.52
- Drug uptake (Pons [44]): 3.06
- Drug uptake [45]: 0.24
- Drug uptake [46]: 2.03
- Drug uptake (Caudate [47]): 3.11
- Drug uptake (Caudate [48]): 3.13
- Ratio [49]: 2.5
- Ratio [50]: 0.9
- Drug uptake (Midbrain [51]): 2.38
- Drug uptake (Midbrain [52]): 2.2
- Drug uptake (Pons [53]): 1.36
- Ratio [54]: 3.8
- Drug uptake [55]: 1.22

Reference: ChEMBL document CHEMBL1151757, “Synthesis, radiosynthesis, and biological evaluation of fluorine-18-labeled 2beta-carbo(fluoroalkoxy)-3beta-(3'-((Z)-2-haloethenyl)phenyl)nortropanes: candidate radioligands for in vivo imaging of the serotonin transporter with positron emission tomography” (J Med Chem, 2008)
